Format in all cases: cell-based
In test [1] the target is T1, human PAR2 (Homo sapiens, UniProt P55085).
T1 sequence (P55085 26-397): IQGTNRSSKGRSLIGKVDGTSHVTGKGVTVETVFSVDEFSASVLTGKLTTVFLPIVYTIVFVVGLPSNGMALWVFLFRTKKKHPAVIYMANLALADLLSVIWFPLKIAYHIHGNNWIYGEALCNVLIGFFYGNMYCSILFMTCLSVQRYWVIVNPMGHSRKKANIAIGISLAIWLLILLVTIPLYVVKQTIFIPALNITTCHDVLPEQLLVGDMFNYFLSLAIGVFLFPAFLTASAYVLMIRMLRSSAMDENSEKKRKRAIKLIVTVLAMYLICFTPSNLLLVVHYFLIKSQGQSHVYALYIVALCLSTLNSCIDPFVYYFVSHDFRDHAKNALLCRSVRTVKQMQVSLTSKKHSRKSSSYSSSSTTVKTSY
Description: Determination of changes in cytosolic calcium in transfected CHO-K1 cells. The settings on record: intracellular calcium mobilization; for EC50: CHO-K1 cells transfected with PAR2, Fura-2; for Emax: CHO-K1 cells transfected with PAR2, response compared to SLIGRL at 100 nM, read-out: % Efficacy. The protocol:
1. CHO-K1 cells transfected with PAR2 or a control receptor at a density 1-3×10^6 cells/ml are washed with phosphate-buffered saline.
2. Cells are loaded with 2 μM Fura-2 and analyzed with respect to the rise in intracellular calcium in the presence or absence of varying concentration of compound.
3. The response is compared to that elicited by the application of the standard reference ligand SLIGRL when tested at 100 nM.
Intracellular free calcium concentrations are calculated using the formula:
where Kd for Fura-2 is 224 nM, Fmax is the fluorescence in the presence of 0.04% Triton-X100 and Fmin is the fluorescence obtained after the addition of 5 mM EGTA in 30 mM Tris-HCl, pH7.4.
As shown in Table 2 and FIG. 3, these experiments have shown these agents act at human PAR2 to stimulate intracellular calcium mobilization.
Background: Calcium assays in cells follow changes in intracellular calcium, usually with a dye or a luminescent sensor.

The target in test [2] is T1, human PAR2. Description: Determination of changes in inositol phosphates in transfected tsA cells. As to conditions: inositol phosphate hydrolysis, transfected tsA cells (transformed HEK293), 45 min with ligand; for Emax: TS/A, read-out: % Efficacy. The protocol:
Seed tsA cells (a transformed HEK293 cell line) at 10,000 cells/0.1 ml per well of 96 well plates at 37 C in a humidified 5% CO2 incubator in DMEM supplemented with 10% fetal calf serum, penicillin (100 units/ml) and streptomycin ([…]) and grown overnight.
Transfect the cells with plasmid DNAs coding receptors or G-protein helpers when needed using PolyFect according to the RSAT protocol described previously. At 18-20 h post-transfection, the medium is removed and the cells are labeled overnight with 2 uCi/ml myo-[2-3H] inositol (0.1 ml/well) freshly made in the culture medium.
Remove the medium and wash cells with Hank's Balanced Salt Solutions (HBSS) containing 1 mM CaCl2, 1 mM MgCl2, 20 mM LiCl and 0.1% BSA. The cells are then incubated with ligands for 45 min at 37 C (0.1 ml/well) and the reaction is stopped by exchanging the buffer with 150 ul/well ice-cold 20 mM formic acid. Add 50 ul/well 0.2M ammonium and store plates at −80 C or process samples immediately.
To separate total [3H] inositol phosphates (IPs) ion-exchange chromatography columns are loaded with 200 ul of AG 1-X8 resin suspension (50% resin and 50% water) and the cell extracts were applied to the columns. Wash the columns with 1 ml 40 mM ammonium hydroxide (pH9) and elute [3H] IPs into the 2 ml deep-well blocks with 0.4 ml 2M ammonium format/0.1M formic acid. Wash the columns with 0.6 ml water. Transfer the eluates into 7 ml scintillation vials and add 5 ml liquid scintillation cocktail. Mix well, leave the vials in the dark for at least 4 h and count on LS 6500 Multi-purpose Scintillation Counter (3 min/vial). This procedure collects IP1, IP2 and IP3.
As shown in Table 3 and FIG. 4, these experiments have shown these agents act at human PAR2 to stimulate inositol phosphate hydrolysis.

Test [3] addresses T1, human PAR2. Description: Receptor Selection and Amplification Technology (R-SAT) functional receptor assay. Also noted: expressed in transfected cells; host or cells: NIH3T3 cells, pSI-derived mammalian expression vector. The settings on record: for EC50: NIH3T3 cells transfected with PAR2, PAR2 activation, negative log of EC50 in Molar; for Emax: NIH3T3 cells transfected with PAR2, percent maximal activation relative to SLIGRL, read-out: % Efficacy. The protocol: The functional receptor assay, Receptor Selection and Amplification Technology (R-SAT), was used to investigate the pharmacological properties of known and novel PAR2 compounds. R-SAT is disclosed in U.S. Pat. Nos. 5,707,798, 5,912,132, and 5,955,281, all of which are hereby incorporated herein by reference in their entirety, including any drawings.
Briefly, NIH3T3 cells were grown in 96 well tissue culture plates to 70-80% confluence. Cells were transfected for 16-20 h with plasmid DNAs using Polyfect (Qiagen Inc.) as per manufacturer's protocols. R-SATs were generally performed with 4 ng/well of receptor and 20 ng/well of β-galactosidase plasmid DNA. All receptor constructs used were in the pSI-derived mammalian expression vector (Promega Inc) as described previously. The PAR2 gene was amplified by PCR from genomic DNA using oligodeoxynucleotide primers based on the published sequence (GenBank Accession # Z49993 and Z49994). For large-scale transfections, cells were transfected for 16-20 h, then trypsinized and frozen in DMSO. Frozen cells were later thawed, plated at ˜10,000 cells per well of a 96 half-area well plate that contained drug. With both methods, cells were then grown in a humidified atmosphere with 5% ambient CO2 for five days. Media was then removed from the plates and marker gene activity was measured by the addition of the β-galactosidase substrate o-nitrophenyl β-D-galactopyranoside (ONPG, in PBS with 0.5% NP-40). The resulting colorimetric reaction was measured in a spectrophotometric plate reader (Titertek Inc.) at 420 nm. All data were analyzed using the computer program XLFit (IDBSm). Efficacy is the percent maximal activation compared to activation by a control compound, the PAR2 activating hexapeptide SLIGRL (serine-leucine-isoleucine-glycine-arginine-leucine). pEC50 is the negative of the log (EC50), where EC50 is the calculated concentration in Molar that produces 50% maximal activation.
These experiments provide a molecular profile, or fingerprint, for each of these agents at human PAR2.
Efficacy is relative to that of SLIGRL.

The values below come from US20080318960A1, “PAR2-modulating compounds and their use” (priority 2005, published 2008).

For `C/C(=N\NC(=O)C(NC(=O)c1ccccc1)c1n[nH]c(=O)c2ccccc12)c1cccc(Br)c1` (stereo not drawn) [Compound 3, N-[2-{(2E)-2-[1-(3-bromophenyl)ethylidene]hydrazino}-2-oxo-1-(4-oxo-3,4-dihydro-1-phthalazinyl)ethyl]benzamide], the values for the 50% effective concentration (EC50) on human PAR2 [1], on human PAR2 [2] and on human PAR2 [3] were 3.98 µM, 2.51 µM and 126 nM, respectively. Further, the Emax worked out at 72% on human PAR2 [1], 120% at human PAR2 [2] and 98% at human PAR2 [3].

Regarding `C/C(=N\NC(=O)C(NC(=O)c1ccccc1)c1n[nH]c(=O)c2ccccc12)c1cccc(C(F)(F)F)c1` (stereo not drawn) [Compound 27, N-[2-oxo-1-(4-oxo-3,4-dihydro-1-phthalazinyl)-2-((2E)-2-{1-[3-(trifluoromethyl)phenyl]ethylidene}hydrazino)ethyl]benzamide], at human PAR2 [3], the half-maximal effective concentration (EC50) is 251 nM and the Emax came out at 77%.

Turning to `CC/C(=N\NC(=O)C(NC(=O)c1ccccc1)c1n[nH]c(=O)c2ccccc12)c1cccc(Br)c1` (stereo not drawn) [Compound 25, N-[2-{(2E)-2-[1-(3-bromophenyl)propylidene]hydrazino}-2-oxo-1-(4-oxo-3,4-dihydro-1-phthalazinyl)ethyl]benzamide], at human PAR2 [3], the concentration giving a half-maximal response (EC50) was 501 nM and the Emax was determined as 111%.

For `C/C(=N\NC(=O)C(NC(=O)c1ccccc1)c1n[nH]c(=O)c2ccccc12)c1cccc(Cl)c1` (stereo not drawn) [Compound 28, N-[2-{(2E)-2-[1-(3-chlorophenyl)ethylidene]hydrazino}-2-oxo-1-(4-oxo-3,4-dihydro-1-phthalazinyl)ethyl]benzamide], on human PAR2 [3], the midpoint of the response, the EC50, lay at 158 nM and the Emax stood at 112%.

On to `C/C(=N\NC(=O)C(NC(=O)c1ccccc1)c1n[nH]c(=O)c2ccccc12)c1cccc(C)c1` (stereo not drawn) [Compound 31, N-[2-{(2E)-2-[1-(3-methylphenyl)ethylidene]hydrazino}-2-oxo-1-(4-oxo-3,4-dihydro-1-phthalazinyl)ethyl]benzamide], for which, on human PAR2 [3], the EC50 was 316 nM and the Emax was found to be 118%.

Take `C/C(=N\NC(=O)C(NC(=O)c1ccccc1)c1n[nH]c(=O)c2ccccc12)c1cccc(C#N)c1` (stereo not drawn) [Compound 29, N-[2-{(2E)-2-[1-(3-cyanophenyl)ethylidene]hydrazino}-2-oxo-1-(4-oxo-3,4-dihydro-1-phthalazinyl)ethyl]benzamide]: at human PAR2 [3], the 50% effective concentration (EC50) is 316 nM and the Emax is 132%.

With `C/C(=N\NC(=O)C(NC(=O)c1ccccc1)c1n[nH]c(=O)c2ccccc12)c1cc(C)cc(C)c1` (stereo not drawn) [Compound 43, N-[2-{(2E)-2-[1-(3,5-dimethylphenyl)ethylidene]hydrazino}-2-oxo-1-(4-oxo-3,4-dihydro-1-phthalazinyl)ethyl]benzamide], the half-maximal effective concentration (EC50) on human PAR2 [1] was 7.94 µM; at human PAR2 [2], 10 µM; at human PAR2 [3], 79.4 nM. The Emax stood at 85% on human PAR2 [1], 130% on human PAR2 [2] and 122% on human PAR2 [3].

For the compound `COc1cccc(/C(C)=N/NC(=O)C(NC(=O)c2ccccc2)c2n[nH]c(=O)c3ccccc23)c1` (stereo not drawn) [Compound 6, N-[2-{(2E)-2-[1-(3-methoxyphenyl)ethylidene]hydrazino}-2-oxo-1-(4-oxo-3,4-dihydro-1-phthalazinyl)ethyl]benzamide], on human PAR2 [3], the midpoint of the response, the EC50, lay at 794 nM and the Emax came out at 79%.

For orientation: EC50 means the concentration needed to bring the measured effect to its halfway point.
